Laboratory results reported in ChEMBL document CHEMBL1201862, “PubChem BioAssay data set” (2004).
Active and inactive are the calls of the source.

Tests used:
[1] = biological target: T1, Rac GTPase-activating protein 1 (Homo sapiens, UniProt Q9H0H5); assay: MgcRacGAP GTPase-activating activity inhibitors, confirmation, biochemical, ADP Hunter fluorescence, primary and confirmatory (AID 624330); type: functional
T1 sequence (Q9H0H5 whole entry): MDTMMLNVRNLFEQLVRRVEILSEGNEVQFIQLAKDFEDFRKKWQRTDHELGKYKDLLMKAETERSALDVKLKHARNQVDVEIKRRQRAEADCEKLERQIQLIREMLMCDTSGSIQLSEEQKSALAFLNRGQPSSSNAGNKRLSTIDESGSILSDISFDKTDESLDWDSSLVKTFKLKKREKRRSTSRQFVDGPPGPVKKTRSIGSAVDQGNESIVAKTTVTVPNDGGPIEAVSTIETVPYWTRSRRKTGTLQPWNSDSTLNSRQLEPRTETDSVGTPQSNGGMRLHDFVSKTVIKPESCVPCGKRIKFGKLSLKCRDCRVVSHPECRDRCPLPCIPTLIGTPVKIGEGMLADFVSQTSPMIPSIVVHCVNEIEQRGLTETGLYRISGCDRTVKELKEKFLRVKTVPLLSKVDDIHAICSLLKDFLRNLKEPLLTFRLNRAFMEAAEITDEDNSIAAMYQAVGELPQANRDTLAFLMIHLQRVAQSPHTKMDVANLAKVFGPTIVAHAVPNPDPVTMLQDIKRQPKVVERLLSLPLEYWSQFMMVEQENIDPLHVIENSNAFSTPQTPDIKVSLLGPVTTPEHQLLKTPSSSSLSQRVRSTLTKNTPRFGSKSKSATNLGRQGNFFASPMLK

[2] = biological target: T2, NADPH oxidase 1 (Homo sapiens, UniProt Q9Y5S8); assay: Luminescence-based cell-based dose response assay to identify inhibitors of NADPH oxidase 1 (NOX1).; type: functional
T2 sequence (Q9Y5S8 whole entry): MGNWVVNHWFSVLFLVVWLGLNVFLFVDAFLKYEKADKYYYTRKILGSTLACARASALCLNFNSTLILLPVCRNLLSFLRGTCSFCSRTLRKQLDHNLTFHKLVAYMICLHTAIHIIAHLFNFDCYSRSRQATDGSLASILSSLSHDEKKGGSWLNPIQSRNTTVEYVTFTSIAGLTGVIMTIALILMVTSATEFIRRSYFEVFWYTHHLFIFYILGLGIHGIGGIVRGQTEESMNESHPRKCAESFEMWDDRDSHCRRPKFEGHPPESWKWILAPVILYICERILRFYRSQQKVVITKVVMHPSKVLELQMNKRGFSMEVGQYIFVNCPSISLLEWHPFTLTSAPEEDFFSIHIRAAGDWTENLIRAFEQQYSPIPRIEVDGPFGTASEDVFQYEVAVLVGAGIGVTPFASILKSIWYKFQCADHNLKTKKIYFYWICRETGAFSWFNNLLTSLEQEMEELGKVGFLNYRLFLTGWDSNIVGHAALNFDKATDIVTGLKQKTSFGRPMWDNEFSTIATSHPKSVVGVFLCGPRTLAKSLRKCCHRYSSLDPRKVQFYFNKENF

[3] = biological target: T2, NADPH oxidase 1; type: functional, cell-based
[4] = biological target: Sphingosine 1-phosphate receptor 3 (Homo sapiens, UniProt Q99500); assay: Dose response cell-based high throughput screening assay for antagonists of the Sphingosine 1-Phosphate Receptor 3 (S1P3). [Related pubchem assays: 1429, 485 ]; type: functional
[5] = biological target: 5-hydroxytryptamine receptor 1E (Homo sapiens, UniProt P28566); assay: Counterscreen assay for S1P3 antagonists: Dose response cell-based high throughput screening assay to identify antagonists of the 5-Hydroxytryptamine Receptor Subtype 1E (5HT1E). [Related pubchem assays: 1429, 485 ]; type: functional
5-hydroxytryptamine receptor 1E, sequence (P28566 whole entry): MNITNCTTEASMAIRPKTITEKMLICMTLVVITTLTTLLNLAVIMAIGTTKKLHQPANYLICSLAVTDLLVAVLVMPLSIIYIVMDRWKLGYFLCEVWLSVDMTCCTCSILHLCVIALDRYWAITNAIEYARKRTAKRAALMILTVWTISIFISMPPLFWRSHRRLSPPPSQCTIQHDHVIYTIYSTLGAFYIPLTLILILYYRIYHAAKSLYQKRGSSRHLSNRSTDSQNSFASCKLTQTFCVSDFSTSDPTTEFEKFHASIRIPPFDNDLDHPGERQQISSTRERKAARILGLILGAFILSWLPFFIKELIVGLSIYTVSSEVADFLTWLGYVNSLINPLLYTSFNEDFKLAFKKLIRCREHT

[6] = biological target: 26S proteasome non-ATPase regulatory subunit 14 (Homo sapiens, UniProt O00487); assay: inhibition of proteasome subunit RPN11 – biochemical, fluorescence polarization, uHTS hits, confirmation (AID 602368); type: functional
26S proteasome non-ATPase regulatory subunit 14, sequence (O00487 whole entry): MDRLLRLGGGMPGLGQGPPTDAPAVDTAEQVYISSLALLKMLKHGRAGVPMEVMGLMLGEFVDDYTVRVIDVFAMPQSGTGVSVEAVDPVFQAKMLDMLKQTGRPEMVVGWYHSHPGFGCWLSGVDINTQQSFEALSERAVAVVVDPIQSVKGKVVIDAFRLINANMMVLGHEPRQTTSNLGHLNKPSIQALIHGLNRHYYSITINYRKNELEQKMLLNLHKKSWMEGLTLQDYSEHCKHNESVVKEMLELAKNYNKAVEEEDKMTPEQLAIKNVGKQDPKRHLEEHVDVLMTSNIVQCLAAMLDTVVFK

[7] = biological target: Prothrombin (Bos taurus, UniProt P00735); assay: thrombin inhibition, dose response, biochemical, fluorescence polarization, uHTS hits (AID 602369); type: functional
[8] = biological target: 72 kDa type IV collagenase (Homo sapiens, UniProt P08253); assay: Dose Response validation of uHTS RPN11 inhibitor hits using a MMP-2 Fluorescence assay.; type: functional
72 kDa type IV collagenase, sequence (P08253 whole entry): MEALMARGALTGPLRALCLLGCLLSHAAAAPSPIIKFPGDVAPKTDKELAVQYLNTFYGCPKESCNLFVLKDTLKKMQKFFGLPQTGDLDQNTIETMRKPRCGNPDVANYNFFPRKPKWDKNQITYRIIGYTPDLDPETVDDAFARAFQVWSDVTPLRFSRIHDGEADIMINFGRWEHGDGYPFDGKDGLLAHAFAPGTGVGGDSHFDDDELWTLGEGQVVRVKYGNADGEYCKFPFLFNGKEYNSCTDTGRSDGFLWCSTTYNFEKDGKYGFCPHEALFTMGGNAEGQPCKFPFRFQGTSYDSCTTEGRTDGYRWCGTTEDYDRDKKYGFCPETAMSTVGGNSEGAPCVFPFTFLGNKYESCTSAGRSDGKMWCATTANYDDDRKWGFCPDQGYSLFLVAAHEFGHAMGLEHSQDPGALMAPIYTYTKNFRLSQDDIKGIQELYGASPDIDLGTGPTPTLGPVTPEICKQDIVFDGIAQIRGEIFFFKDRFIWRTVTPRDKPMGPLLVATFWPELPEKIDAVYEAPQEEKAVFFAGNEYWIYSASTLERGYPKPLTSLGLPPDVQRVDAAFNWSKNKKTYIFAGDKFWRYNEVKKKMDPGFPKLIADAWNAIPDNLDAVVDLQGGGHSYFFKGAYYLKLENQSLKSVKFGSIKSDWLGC

[9] = enhancers of respiration in Yfh1-depleted yeast, dose response, Friedreich's ataxia, plus single-dose screen (AID 1465); type: functional;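 note: yeast depleted of Yfh1p frataxin homolog grown on glycerol needing respiration; WST-1 tetrazolium dye reduction as measure of cellular dehydrogenase metabolic activity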
[10] = biological target: Ion channel NompC (Danio rerio, UniProt Q7T1G6); assay: Fluorescence counterscreen assay for TRPML3 agonists: dose response cell-based high-throughput screening assay to identify agonists of the transient receptor potential channel N1 (TRPN1). [Related pubchem assays: 1526, 1424, 1448 ]; type: functional
Ion channel NompC, sequence (Q7T1G6 whole entry, the tested form may be a part): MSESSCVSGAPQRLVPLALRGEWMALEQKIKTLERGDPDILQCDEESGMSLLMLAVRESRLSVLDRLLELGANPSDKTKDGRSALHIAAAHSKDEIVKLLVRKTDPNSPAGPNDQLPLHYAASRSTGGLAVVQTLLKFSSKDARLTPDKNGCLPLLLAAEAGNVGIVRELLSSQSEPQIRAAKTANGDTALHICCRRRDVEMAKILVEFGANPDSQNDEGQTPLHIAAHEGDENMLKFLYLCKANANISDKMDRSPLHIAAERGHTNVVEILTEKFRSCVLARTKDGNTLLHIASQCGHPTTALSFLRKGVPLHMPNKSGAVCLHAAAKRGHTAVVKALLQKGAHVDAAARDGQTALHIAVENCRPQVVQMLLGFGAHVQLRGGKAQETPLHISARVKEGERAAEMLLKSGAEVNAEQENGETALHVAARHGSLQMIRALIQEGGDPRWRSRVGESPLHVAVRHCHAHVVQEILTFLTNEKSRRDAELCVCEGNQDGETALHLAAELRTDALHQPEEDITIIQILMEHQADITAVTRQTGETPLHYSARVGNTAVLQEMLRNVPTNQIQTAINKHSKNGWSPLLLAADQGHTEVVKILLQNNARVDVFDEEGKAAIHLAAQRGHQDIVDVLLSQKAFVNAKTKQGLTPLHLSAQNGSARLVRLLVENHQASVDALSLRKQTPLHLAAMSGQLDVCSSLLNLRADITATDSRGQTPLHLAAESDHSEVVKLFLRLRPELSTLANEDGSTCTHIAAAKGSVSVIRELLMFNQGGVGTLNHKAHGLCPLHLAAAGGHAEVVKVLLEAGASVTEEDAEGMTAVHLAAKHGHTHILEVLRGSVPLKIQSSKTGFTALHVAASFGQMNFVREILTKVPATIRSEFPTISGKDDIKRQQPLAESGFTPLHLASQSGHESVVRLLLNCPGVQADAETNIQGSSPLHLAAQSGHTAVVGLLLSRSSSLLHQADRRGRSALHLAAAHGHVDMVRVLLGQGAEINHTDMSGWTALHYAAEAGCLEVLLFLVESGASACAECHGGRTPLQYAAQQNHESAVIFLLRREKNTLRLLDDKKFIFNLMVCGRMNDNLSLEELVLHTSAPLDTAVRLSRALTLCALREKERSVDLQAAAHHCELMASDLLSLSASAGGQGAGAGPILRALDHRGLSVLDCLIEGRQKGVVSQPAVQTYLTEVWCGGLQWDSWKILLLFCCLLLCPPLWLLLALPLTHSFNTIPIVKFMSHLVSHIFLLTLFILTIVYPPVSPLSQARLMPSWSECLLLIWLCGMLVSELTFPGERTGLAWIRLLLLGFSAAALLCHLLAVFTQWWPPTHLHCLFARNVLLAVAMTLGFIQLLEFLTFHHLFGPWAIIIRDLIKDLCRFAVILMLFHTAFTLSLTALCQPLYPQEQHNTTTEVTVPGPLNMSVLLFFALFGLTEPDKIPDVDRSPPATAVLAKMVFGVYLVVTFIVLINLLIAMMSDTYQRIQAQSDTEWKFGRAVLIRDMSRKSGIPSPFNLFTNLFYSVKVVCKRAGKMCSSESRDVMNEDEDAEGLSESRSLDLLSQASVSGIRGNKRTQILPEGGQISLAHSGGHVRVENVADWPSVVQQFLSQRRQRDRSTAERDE

[11] = ZM109 Env clade C HIV-1 fusion inhibitors, dose response, HeLa effector, CEM target cells, luciferase, cherry-pick (AID 652058); type: functional, cell-based
[12] = biological target: Mucolipin-3 (Homo sapiens, UniProt Q8TDD5); assay: Dose response cell-based high-throughput screening assay for agonists of the transient receptor potential channel ML3 (TRPML3). [Related pubchem assays: 1526, 1424, 1448 ]; type: functional
Mucolipin-3, sequence (Q8TDD5 whole entry, the tested form may be a part): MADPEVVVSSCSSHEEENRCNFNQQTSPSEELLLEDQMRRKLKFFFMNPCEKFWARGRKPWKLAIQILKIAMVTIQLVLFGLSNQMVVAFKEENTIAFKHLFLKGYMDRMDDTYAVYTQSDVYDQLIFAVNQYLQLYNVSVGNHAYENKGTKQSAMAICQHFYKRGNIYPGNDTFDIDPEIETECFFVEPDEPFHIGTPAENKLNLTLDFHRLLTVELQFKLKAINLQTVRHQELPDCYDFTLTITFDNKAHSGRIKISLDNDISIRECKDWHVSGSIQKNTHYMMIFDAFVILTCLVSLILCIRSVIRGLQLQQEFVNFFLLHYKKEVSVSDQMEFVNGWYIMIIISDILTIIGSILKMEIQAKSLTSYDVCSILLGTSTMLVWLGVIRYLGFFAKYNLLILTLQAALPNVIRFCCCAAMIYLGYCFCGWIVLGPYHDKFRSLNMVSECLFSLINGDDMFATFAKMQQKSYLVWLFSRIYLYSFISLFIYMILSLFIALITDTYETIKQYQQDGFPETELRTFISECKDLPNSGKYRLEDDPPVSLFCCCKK

[13] = inhibitors of clade B AD8 Env fusion, dose response, cell-based, cherry-pick (AID 652062); type: functional;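 note: luciferase signal from cell-cell fusion driven by HIV-1 clade B AD8 Env; potency is for inhibitors of fusion seen as a drop in luminescence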
[14] = inhibitors of HIV Env-driven cell fusion, dose response, cherry-pick (AID 652057); type: functional, cell-based
[15] = off-target signal loss in HeLa-CEM21 co-culture – HeLa F-luc CTL cells, cherry-picked, counter-screen for HIV-1 Env fusion inhibitor project, dose response (AID 652040); type: functional, cell-based;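 note: potency for signal decrease marking cytotoxic or nonspecific inhibition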
[16] = biological target: Epstein-Barr nuclear antigen 1 (Epstein-Barr virus (strain B95-8) (HHV-4) (Human herpesvirus 4), UniProt P03211); assay: EBNA-1 inhibitors, dose response, biochemical, fluorescence polarization, 1536-well (AID 2381); set-up: species or system human gammaherpesvirus 4;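 note: fluorescence polarization of a Cy5 DNA probe bound by EBNA-1 protein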
[17] = biological target: Lytic switch protein BZLF1 (Epstein-Barr virus (strain B95-8) (HHV-4) (Human herpesvirus 4), UniProt P03206); assay: EBV ZTA inhibitors, dose response, counter-screen for EBNA-1 inhibitor project, biochemical, fluorescence polarization, Epstein-Barr virus, 1536-well (AID 2377); set-up: species or system human gammaherpesvirus 4;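 note: fluorescence polarization of Cy5-labelled ZRE DNA probe bound by purified Zta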
[18] = test system: Streptococcus sp. 'group A'; assay: growth inhibition of control SK(-) GAS strain, dose response, counter-screen for streptokinase expression inhibitor project, luminescence, kanamycin, BacTiterGlo, confirmation (AID 1900); type: functional, organism-based
[19] = Absorbance Microorganism-Based Dose Response Follow up to Identify Inhibitors of Streptokinase Expression. [Related pubchem assays: 1677 (Project Summary), 1915, 1914, 1902 (Retest at Dose), 1900 (Counter Screen), 1662 (Primary HTS)]
[20] = biological target: T3, Streptokinase A (Streptococcus pyogenes serotype M1, UniProt P10520); assay: Absorbance Microorganism-Based Dose Response Follow up to Identify Inhibitors of Streptokinase Expression. [Related pubchem assays: 1677 (Project Summary), 1915, 1914, 1902 (Retest at Dose), 1900 (Counter Screen), 1662 (Primary HTS)]; type: functional, Streptococcus pyogenes M1 GAS
T3 sequence (P10520 whole entry): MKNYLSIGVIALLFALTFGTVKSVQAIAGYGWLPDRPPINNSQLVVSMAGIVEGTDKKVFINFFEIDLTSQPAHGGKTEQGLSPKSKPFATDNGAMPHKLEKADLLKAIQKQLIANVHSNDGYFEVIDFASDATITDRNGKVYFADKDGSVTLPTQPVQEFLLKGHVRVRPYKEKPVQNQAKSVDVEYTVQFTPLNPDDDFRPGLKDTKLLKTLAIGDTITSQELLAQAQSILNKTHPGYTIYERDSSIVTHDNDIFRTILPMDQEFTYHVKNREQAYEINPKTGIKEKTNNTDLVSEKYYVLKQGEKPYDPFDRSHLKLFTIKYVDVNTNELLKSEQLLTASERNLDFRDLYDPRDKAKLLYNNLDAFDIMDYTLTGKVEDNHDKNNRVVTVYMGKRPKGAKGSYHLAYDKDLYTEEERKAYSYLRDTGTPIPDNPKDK

[21] = biological target: Cytochrome P450 2C9 (Homo sapiens, UniProt P11712)
Cytochrome P450 2C9, sequence (P11712 whole entry): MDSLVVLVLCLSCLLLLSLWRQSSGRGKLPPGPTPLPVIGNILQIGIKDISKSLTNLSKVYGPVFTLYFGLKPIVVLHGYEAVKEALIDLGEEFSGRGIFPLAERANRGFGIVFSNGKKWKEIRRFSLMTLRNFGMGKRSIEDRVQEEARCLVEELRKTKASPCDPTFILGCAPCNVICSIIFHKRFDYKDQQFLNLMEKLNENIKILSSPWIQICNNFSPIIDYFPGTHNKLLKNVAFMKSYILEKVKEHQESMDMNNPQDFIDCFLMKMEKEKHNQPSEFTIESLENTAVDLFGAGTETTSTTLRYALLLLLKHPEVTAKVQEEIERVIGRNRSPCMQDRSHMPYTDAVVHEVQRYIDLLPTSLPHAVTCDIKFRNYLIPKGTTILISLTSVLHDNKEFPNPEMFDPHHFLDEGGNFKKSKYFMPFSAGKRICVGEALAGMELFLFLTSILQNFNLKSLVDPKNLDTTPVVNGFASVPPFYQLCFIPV

[22] = test system: Streptococcus; assay: Luminescence Microorganism-Based Dose Response Follow up to Identify Compounds Cytotoxic to Streptococcus. [Related pubchem assays: 1677 (Project Summary), 1915, 1914, 1902 (Retest at Dose), 1900 (Counter Screen), 1662 (Primary HTS)]; type: functional, organism-based
[23] = biological target: T3, Streptokinase A; assay: S. pyogenes streptokinase expression inhibitors, potency, dose response, plasminogen activation absorbance, OD405 (AID 1914); type: functional, Streptococcus pyogenes M1 GAS;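 note: secreted streptokinase activity via plasminogen activation per viability signal from cell pellet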
[24] = Jurkat T cell cytotoxicity, dose response, cytotoxicity control for P. falciparum gametocyte viability project, luminescence (AID 1117277); type: functional, cell-based;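 note: potency reflects loss of cellular ATP meaning fewer viable cells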
[25] = test system: Streptococcus; assay: Group A Streptococcus viability loss, dose response, counter-screen for streptokinase expression inhibitor project, luminescence, BacTiterGlo (AID 1915); type: functional, organism-based;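 note: potency for reduction of bacterial viability or growth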
[26] = P. falciparum late gametocyte killing, dose response, luminescence (AID 1117278); type: functional, cell-based;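 note: gametocytes exposed to compound for 24 hours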
[27] = biological target: Sphingosine 1-phosphate receptor 2 (Homo sapiens, UniProt O95136); assay: Dose Response Cell Based Assay for Agonists of the S1P2 Receptor of Purchased Analogues. [Related pubchem assays: 729, 843, 854, 736 ]; type: functional
Sphingosine 1-phosphate receptor 2, sequence (O95136 whole entry): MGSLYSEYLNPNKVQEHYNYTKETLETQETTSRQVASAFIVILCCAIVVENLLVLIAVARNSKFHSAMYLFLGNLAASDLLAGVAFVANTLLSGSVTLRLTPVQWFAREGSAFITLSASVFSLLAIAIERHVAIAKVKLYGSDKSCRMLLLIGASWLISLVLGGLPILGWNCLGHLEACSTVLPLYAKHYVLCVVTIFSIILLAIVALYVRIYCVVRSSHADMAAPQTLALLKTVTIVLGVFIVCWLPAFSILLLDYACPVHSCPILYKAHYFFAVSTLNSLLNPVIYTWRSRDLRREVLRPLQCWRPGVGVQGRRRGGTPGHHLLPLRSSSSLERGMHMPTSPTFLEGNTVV

[28] = A High Throughput Confirmatory Assay used to Identify Novel Compounds that Inhibit Mycobacterium Tuberculosis in the absence of Glycerol.; type: functional
[29] = microbe, parasite or virus in culture; type: functional; details: Mycobacterium tuberculosis
[30] = Luminescence Cell-Based Dose Response HTS to Identify Activators of Luciferase Translation or Activity in H4 […] Cells. [Related pubchem assays: 1829 (Project Summary), 1814 (Primary HTS)]; type: functional
[31] = Luminescence Cell-Based Dose Confirmation to Identify Activators of 5'UTR Stem-Loop Driven Alpha-Synuclein mRNA Translation in H4 Neuroglioblastoma Cells. [Related pubchem assays: 1829 (Project Summary), 1814 (Primary HTS)]; type: functional
[32] = biological target: T4, Calpain-2 catalytic subunit (Sus scrofa, UniProt P43367); assay: pig calpain II inhibitor potency, dose response, biochemical, fluorogenic peptide substrate (AID 1420); type: functional
T4 sequence (P43367 whole entry): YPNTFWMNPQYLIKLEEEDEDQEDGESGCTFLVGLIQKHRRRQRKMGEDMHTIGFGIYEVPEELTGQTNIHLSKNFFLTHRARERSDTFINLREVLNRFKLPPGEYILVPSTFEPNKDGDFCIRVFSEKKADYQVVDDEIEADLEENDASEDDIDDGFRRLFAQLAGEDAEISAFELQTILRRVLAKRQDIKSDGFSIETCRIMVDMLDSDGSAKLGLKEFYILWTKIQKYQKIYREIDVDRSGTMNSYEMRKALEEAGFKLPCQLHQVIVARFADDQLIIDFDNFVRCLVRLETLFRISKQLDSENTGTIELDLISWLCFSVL

[33] = Luminescence Cell-Based Dose Response to Identify Activators of 5'UTR Stem-Loop Driven Prion Protein mRNA Translation in H4-C Neuroglioblastoma Cells. [Related pubchem assays: 1829 (Project Summary), 1814 (Primary HTS)]; type: functional
[34] = biological target: Luciferin 4-monooxygenase (Photinus pyralis, UniProt P08659); assay: Counter Screen for Luciferase-based Assay Positives. [Related pubchem assays: 620, 618, 411 ]
Luciferin 4-monooxygenase, sequence (P08659 whole entry): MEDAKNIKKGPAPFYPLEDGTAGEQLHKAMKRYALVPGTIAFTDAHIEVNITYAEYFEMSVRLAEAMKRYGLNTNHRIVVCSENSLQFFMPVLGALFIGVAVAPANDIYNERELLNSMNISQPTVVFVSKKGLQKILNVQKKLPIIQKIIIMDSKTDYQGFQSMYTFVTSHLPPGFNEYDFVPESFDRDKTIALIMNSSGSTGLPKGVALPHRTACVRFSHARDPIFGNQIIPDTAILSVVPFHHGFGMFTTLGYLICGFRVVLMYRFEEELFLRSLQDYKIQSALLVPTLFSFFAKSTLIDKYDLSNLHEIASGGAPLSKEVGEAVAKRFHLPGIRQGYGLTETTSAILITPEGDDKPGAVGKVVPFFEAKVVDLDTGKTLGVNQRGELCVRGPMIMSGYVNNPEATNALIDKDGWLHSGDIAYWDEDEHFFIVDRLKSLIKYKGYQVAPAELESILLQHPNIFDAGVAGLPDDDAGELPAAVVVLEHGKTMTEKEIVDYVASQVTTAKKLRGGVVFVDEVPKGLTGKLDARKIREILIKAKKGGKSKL

[35] = test system: HT-1080; assay: cytotoxicity in HT1080 fibrosarcoma cells, cell-based, fluorescence readout (AID 620); type: functional; details: Homo sapiens
[36] = Luminescence Cell-Based Dose Response to Identify Activators of Luciferase Translation or Activity in H4-C Neuroglioblastoma Cells. [Related pubchem assays: 1829 (Project Summary), 1814 (Primary HTS)]; type: functional

## c1ccc2c(c1)Nc1ccccc1S2 [PHENOTHIAZINE]
[1]
  IC50: 18.5 µM (active)
[2]
  IC50: 0.349 µM (active)
[3]
  IC50: 0.369 µM (active)

## O=C(Nc1ccccc1)C(c1ccccc1)C1CCCC1 (stereo unspecified)
[4]
  IC50: 6.6 µM (active)
[5]
  IC50: 12.1 µM (not active)

## CC(C)NC(=S)N/N=C/c1sc(N2CCCCC2)nc1-c1cccs1
[6]
  IC50: 9.24 µM (active)
[7]
  IC50: 20.1 µM (active)
[8]
  IC50: 9.6 µM (active)
[9]
  EC50: > 100 µM (active)

## Cc1cc(C)c(S(=O)(=O)N2CCCCC2)cc1N(C)S(=O)(=O)c1ccc(Cl)cc1
[10]
  EC50: > 29.9 µM (not active)
[11]
  AC50: 7.77 µM (active)
[12]
  EC50: 1.37 µM (active)
[13]
  AC50: 8.27 µM (active)
[14]
  AC50: 5.6 µM (active)
[15]
  AC50: 11.2 µM (active)

## CC1=CC2=NC(=O)/C(=C\c3cn(C)c4ccccc34)C(=N)N2O1
[16]
  IC50: 8.61 µM (active)
[17]
  IC50: > 111 µM (not active)

## COc1ccc(Sc2ccc(NC(=O)c3ccccc3Cl)cc2C#N)cc1
[18]
  EC50: 1.21 µM (active)
[19]
  EC50: 2.27 µM (active)
[20]
  EC50: 3.14 µM (active)
[21]
  AC50: 2.51 µM (inconclusive)
[22]
  EC50: > 500 µM (not active)
[23]
  EC50: 4.98 µM (active)
[24]
  IC50: > 9.26 µM (active)
[25]
  EC50: > 150 µM (not active)
[26]
  IC50: > 109 µM (inactive)

## Cc1cc(C(=O)CN(C)CC(=O)NC(C)C)c(C)n1Cc1ccccc1
[27]
  EC50: > 30 µM (not active)

## COc1ccccc1NC(=O)Nc1nc(CC(=O)N2CCN(c3ccccc3F)CC2)cs1
[28]
  IC50: > 100 µM (active)
[29]
  CC50: > 40 µM (active)

## O=C(c1cccc(COc2ccc(Cl)cc2Cl)c1)N1CCN(c2ccccn2)CC1
[30]
  EC50: < 0.1 µM (inconclusive)
[31]
  EC50: 0.251 µM (active)
[32]
  IC50: > 50 µM (not active)
[33]
  EC50: 0.275 µM (active)
[34]
  EC50: 46.5 µM (active)
[35]
  EC50: > 50 µM (not active)
[36]
  EC50: 0.242 µM (active)
